{"source": "patent US12227742B2", "about": "“Nucleic acid modifiers” (THE BROAD INSTITUTE, INC., priority 2017, dated 2025)", "key": {"[1]": {"system": "target DNA", "test": "AsCpf1 activity, mutational analysis", "assay_type": "biochemical"}, "[2]": {"system": "Factor VII", "settings": "LNP siRNA systems containing these lipids; cited from earlier work"}, "[3]": {"system": "supercoiled plasmid DNA", "test": "Plasmid DNA cleavage by small-molecule strand breakers (gel electrophoresis)", "assay_type": "biochemical", "settings": "for DNA cleavage activity on supercoiled plasmid: gel electrophoresis, FIG. 19A-19D; for DNA cleavage activity on supercoiled plasmid / Effect of reducing agent on DNA cleavage: supercoiled plasmid; for Effect of reducing agent on DNA cleavage: with reducing agent, FIG. 19A, 19B", "method": "Nitracrine (compound 1.15) was synthesized according to the reaction scheme depicted in FIG. 5. Plasmid DNA was incubated with nitracrine alone (10, 12, 14 μM), nitracrine with exposure to UV (365 nm), or nitracrine with exposure to UV and reducing agent TCEP (FIG. 8A). The same experiment was repeated but using 16, 18, or 20 μM nitracrine (FIG. 8B).\nPlasmid DNA was incubated with nitracrine alone (10, 12, 14 μM), nitracrine with exposure to UV (365 nm), or nitracrine with exposure to UV and reducing agent DTT (FIG. 9A). The same experiment was repeated but using 16, 18, or 20 μM nitracrine (FIG. 9B).\nPlasmid DNA was incubated with 16 μM nitracrine and exposed to UV (365 nm) over a range of 30-60 minutes (FIG. 10).\nDNA cleavage activity of synthetic strand breakers. A series of small molecule DNA strand breakers having diverse structures and cleavage mechanisms were tested (FIG. 19A-19D). A supercoiled plasmid was used as a model substrate DNA, as both single and double-strand breaks can easily be detected using gel electrophoresis."}, "[4]": {"system": "pcDNA", "test": "pcDNA cleavage by compound 1.15, gel electrophoresis", "assay_type": "biochemical"}}, "note": "“Also recorded” adds a separate entry of the source."}
{"molecule": "R951A: AsCpf1 mutant, bridge helix", "values": [{"measurement": "activity", "setting": "[1]", "result": "reduced activities"}]}
{"molecule": "CCCCC/C=C\\C/C=C\\CCCCCCCCOCC(CN(C)C)OCCCCCCCC/C=C\\C/C=C\\CCCCC", "note": "(stereo not shown) [DLinDMA, 1,2-dilinoleyloxy-3-N,N-dimethylaminopropane]", "values": [{"measurement": "gene silencing potency in hepatocytes in vivo (rank order)", "setting": "[2]", "result": "DLinKC2-DMA>DLinKDMA>DLinDMA>>DLinDAP"}]}
{"molecule": "R176A: AsCpf1 mutant, REC1", "values": [{"measurement": "activity", "setting": "[1]", "result": "reduced activities; also recorded: Reduced activity"}]}
{"molecule": "CCCCC/C=C\\C/C=C\\CCCCCCCC(=O)OCC(CN(C)C)OC(=O)CCCCCCC/C=C\\C/C=C\\CCCCC", "note": "(stereo not shown) [DLinDAP, 1,2-dilineoyl-3-dimethylammonium-propane]", "values": [{"measurement": "gene silencing potency in hepatocytes in vivo (rank order)", "setting": "[2]", "result": "DLinKC2-DMA>DLinKDMA>DLinDMA>>DLinDAP"}]}
{"molecule": "CN(C)CCCNc1c2ccccc2nc2cccc([N+](=O)[O-])c12", "note": "[Nitracrine]", "values": [{"measurement": "DNA cleavage over UV exposure time", "setting": "[3]; plasmid DNA, 16 μM nitracrine, UV 365 nm for 30-60 minutes", "result": "Cleavage was observed under all conditions"}, {"measurement": "DNA cleavage with exposure to UV", "setting": "[3]; plasmid DNA, nitracrine 10-20 μM, UV 365 nm", "result": "DNA cleavage was observed at all nitracrine concentrations"}, {"measurement": "DNA cleavage with exposure to UV and reducing agent DTT", "setting": "[3]; plasmid DNA, nitracrine 10-20 μM, UV 365 nm, DTT", "result": "including with DTT"}, {"measurement": "DNA cleavage activity on supercoiled plasmid", "setting": "[3]", "result": "cleaves DNA when irradiated by light"}]}
{"molecule": "CCCCC/C=C\\C/C=C\\CCCCCCCCC1(CCCCCCCC/C=C\\C/C=C\\CCCCC)OCC(CCN(C)C)O1", "note": "(stereo not shown) [DLinKC2-DMA, 1,2-dilinoleyl-4-(2-dimethylaminoethyl)-[1,3]-dioxolane]", "values": [{"measurement": "gene silencing potency in hepatocytes in vivo (rank order)", "setting": "[2]", "result": "DLinKC2-DMA>DLinKDMA>DLinDMA>>DLinDAP"}]}
{"molecule": "R192A: AsCpf1 mutant, REC1", "values": [{"measurement": "activity", "setting": "[1]", "result": "reduced activities; also recorded: Reduced activity"}]}
{"molecule": "CC[C@@]1(O[C@H]2C[C@H](OC)[C@@H](O)[C@H](C)O2)[C@H](O[C@@H]2C[C@H](O)[C@@H](N(C)C)[C@H](C)O2)C2=Cc3c(O)c4c(c(O)c3C2=C(O)[C@@H]1[C@H]1C(=O)c2c(c(=[N+]=[N-])c3c(O)c5c(=O)ccc(=O)c5c(O)c23)[C@@H](O[C@@H]2C[C@H](O)[C@@H](N(C)C)[C@H](C)O2)[C@@]1(CC)O[C@H]1C[C@H](OC)[C@@H](O)[C@H](C)O1)C(=O)C=CC4=O", "note": "[Lomaiviticin C]", "values": [{"measurement": "DNA cleavage activity on supercoiled plasmid", "setting": "[3]", "result": "cleave DNA at low micromolar concentrations"}, {"measurement": "Effect of reducing agent on DNA cleavage", "setting": "[3]", "result": "accelerated by a reducing agent"}]}
{"molecule": "CN(C)CCCNc1c2ccccc2nc2cccc([N+](=O)[O-])c12", "note": "[compound 1.15, nitracrine]", "values": [{"measurement": "pcDNA cleavage", "setting": "[4]; 16 μM, UV (365 nm) from 30 to 60 min", "result": "pcDNA cleavage"}, {"measurement": "pcDNA cleavage", "setting": "[4]; 10-20 μM, UV (365 nm), presence and absence of reducing agent DTT", "result": "pcDNA cleavage"}, {"measurement": "pcDNA cleavage", "setting": "[4]; 10-20 μM, UV (365 nm), presence and absence of reducing agent TCEP", "result": "pcDNA cleavage"}]}
{"molecule": "CC(C)C(=O)O[C@H]1c2c(c3c(=O)c4cccc(O)c4c(=O)c=3c2=[N+]=[N-])[C@@H](O)[C@H]2O[C@@]21C", "note": "[FL-120B]", "values": [{"measurement": "DNA cleavage activity on supercoiled plasmid", "setting": "[3]", "result": "cleave DNA at low micromolar concentrations"}, {"measurement": "Effect of reducing agent on DNA cleavage", "setting": "[3]", "result": "accelerated by a reducing agent"}]}
{"molecule": "G783P: AsCpf1 mutant, WED", "values": [{"measurement": "activity", "setting": "[1]", "result": "reduced activities; also recorded: Reduced activity"}]}
{"molecule": "CCCCC/C=C\\C/C=C\\CCCCCCCCC1(CCCCCCCC/C=C\\C/C=C\\CCCCC)OCC(CN(C)C)O1", "note": "(stereo not shown) [DLinKDMA, 1,2-dilinoleyloxy-keto-N,N-dimethyl-3-aminopropane]", "values": [{"measurement": "gene silencing potency in hepatocytes in vivo (rank order)", "setting": "[2]", "result": "DLinKC2-DMA>DLinKDMA>DLinDMA>>DLinDAP"}]}
